# Measurements as given in patent US8653041B2, “Antibacterial aminoglycoside analogs” (Achaogen, Inc., priority 2010, dated 2014).
# Where two headings read alike, the source gives them in different places.
# Columns and labels:
# Acinetobacter baumannii = experiment: MIC, CLSI broth microdilution, Acinetobacter baumannii panel; assay type: cell-based; conditions: Acinetobacter baumannii, read-out: MIC
# Protocol: (§1) Minimum inhibitory concentrations (MIC) were determined by reference Clinical and Laboratory Standards Institute (CLSI) broth microdilution methods per M7-A7 [2006]. Quality control ranges utilizing E. coli ATCC 25922, P. aeruginosa ATCC 27853 and S. aureus ATCC 29213, and interpretive criteria for comparator agents were as published in CLSI M100-S17 [2007]. Briefly, serial two-fold dilutions of the test compounds were prepared at 2× concentration in Mueller Hinton Broth. The compound dilutions were mixed in 96-well assay plates in a 1:1 ratio with bacterial inoculum. The inoculum was prepared by suspension of a colony from an agar plate that was prepared the previous day. Bacteria were suspended in sterile saline and added to each assay plate to obtain a final concentration of 5×10^5 CFU/mL. The plates were incubated at 35 C for 20 hours in ambient air.
# The MIC panel presented in Table 2 contains 29 isolates of Acinetobacter baumannii: strains 1-24 are clinical isolates from around the world collected between 2004-2007 which contain representative resistance mechanisms commonly found in Acinetobacter baumannii, such as AAC(3)-I and II, AAC(6′)-I, ANT(2″)-I, APH(3′)-VI, and perm/efflux; strains 25-29 are susceptible.
# Pseudomonas aeruginosa = experiment: MIC, CLSI broth microdilution, Pseudomonas aeruginosa panel; assay type: cell-based; conditions: Pseudomonas aeruginosa, read-out: MIC
# Protocol: as §1
# The MIC panel presented in Table 1 contains 27 isolates of Pseudomonas aeruginosa: strains 1-22 are clinical isolates from around the world collected between 2004-2007 which contain representative resistance mechanisms commonly found in Pseudomonas, such as the AAC(6′)-I, AAC(6′)-II, APH(3′)-IIb, ANT(2″)-I, and perm/efflux; strains 23-27 are susceptible.
# [1] = 14-day rat toxicology (nephrotoxicity), once-daily subcutaneous injection
# Protocol: The study design utilized once-daily subcutaneous injection administration to the rat for 14 days and assessment of reversibility of any changes following a 28-day recovery period.
# The dose volume administered to each animal was 1 mL/kg.
smiles,measurement,setting,value
NC[C@@H]1O[C@H](O[C@H]2[C@@H](O)[C@H](O[C@@H]3[C@@H](O)[C@H](NC(=O)[C@@H](O)CN)C[C@H](N)[C@H]3O[C@H]3O[C@H](CNCCO)[C@@H](O)C[C@H]3N)O[C@@H]2CO)[C@H](N)[C@@H](O)[C@@H]1O [Compound 20],MIC,Acinetobacter baumannii; A. baumannii clinical strain 1 (resistant clinical isolate),1 to 8 mg/L
same,MIC,Acinetobacter baumannii; A. baumannii clinical strain 2 (resistant clinical isolate),1 to 8 mg/L
same,MIC,Acinetobacter baumannii; A. baumannii clinical strain 3 (resistant clinical isolate),≤ 1 mg/L
same,MIC,Acinetobacter baumannii; A. baumannii clinical strain 4 (resistant clinical isolate),16 to 32 mg/L
same,MIC,Acinetobacter baumannii; A. baumannii clinical strain 5 (resistant clinical isolate),≤ 1 mg/L
same,MIC,Acinetobacter baumannii; A. baumannii clinical strain 6 (resistant clinical isolate),1 to 8 mg/L
same,MIC,Acinetobacter baumannii; A. baumannii clinical strain 7 (resistant clinical isolate),≤ 1 mg/L
same,MIC,Acinetobacter baumannii; A. baumannii clinical strain 8 (resistant clinical isolate),≤ 1 mg/L
same,MIC,Acinetobacter baumannii; A. baumannii clinical strain 9 (resistant clinical isolate),≤ 1 mg/L
same,MIC,Acinetobacter baumannii; A. baumannii clinical strain 10 (resistant clinical isolate),1 to 8 mg/L
same,MIC,Acinetobacter baumannii; A. baumannii clinical strain 11 (resistant clinical isolate),≤ 1 mg/L
same,MIC,Acinetobacter baumannii; A. baumannii clinical strain 12 (resistant clinical isolate),≤ 1 mg/L
same,MIC,Acinetobacter baumannii; A. baumannii clinical strain 13 (resistant clinical isolate),≤ 1 mg/L
same,MIC,Acinetobacter baumannii; A. baumannii clinical strain 14 (resistant clinical isolate),≤ 1 mg/L
same,MIC,Acinetobacter baumannii; A. baumannii clinical strain 15 (resistant clinical isolate),≤ 1 mg/L
same,MIC,Acinetobacter baumannii; A. baumannii clinical strain 16 (resistant clinical isolate),1 to 8 mg/L
same,MIC,Acinetobacter baumannii; A. baumannii clinical strain 17 (resistant clinical isolate),1 to 8 mg/L
same,MIC,Acinetobacter baumannii; A. baumannii clinical strain 18 (resistant clinical isolate),1 to 8 mg/L
same,MIC,Acinetobacter baumannii; A. baumannii clinical strain 19 (resistant clinical isolate),1 to 8 mg/L
same,MIC,Acinetobacter baumannii; A. baumannii clinical strain 20 (resistant clinical isolate),1 to 8 mg/L
same,MIC,Acinetobacter baumannii; A. baumannii clinical strain 21 (resistant clinical isolate),≤ 1 mg/L
same,MIC,Acinetobacter baumannii; A. baumannii clinical strain 22 (resistant clinical isolate),8 to 16 mg/L
same,MIC,Acinetobacter baumannii; A. baumannii clinical strain 23 (resistant clinical isolate),≤ 1 mg/L
same,MIC,Acinetobacter baumannii; A. baumannii clinical strain 24 (resistant clinical isolate),1 to 8 mg/L
same,MIC,Acinetobacter baumannii; A. baumannii strain 25 (susceptible),≤ 1 mg/L
same,MIC,Acinetobacter baumannii; A. baumannii strain 26 (susceptible),≤ 1 mg/L
same,MIC,Acinetobacter baumannii; A. baumannii strain 27 (susceptible),≤ 1 mg/L
same,MIC,Acinetobacter baumannii; A. baumannii strain 28 (susceptible),≤ 1 mg/L
same,MIC,Acinetobacter baumannii; A. baumannii strain 29 (susceptible),≤ 1 mg/L
same,MIC,Pseudomonas aeruginosa; P. aeruginosa clinical strain 1 (resistant clinical isolate),≤ 1 mg/L
same,MIC,Pseudomonas aeruginosa; P. aeruginosa clinical strain 2 (resistant clinical isolate),≤ 1 mg/L
same,MIC,Pseudomonas aeruginosa; P. aeruginosa clinical strain 3 (resistant clinical isolate),1 to 8 mg/L
same,MIC,Pseudomonas aeruginosa; P. aeruginosa clinical strain 4 (resistant clinical isolate),1 to 8 mg/L
same,MIC,Pseudomonas aeruginosa; P. aeruginosa clinical strain 5 (resistant clinical isolate),1 to 8 mg/L
same,MIC,Pseudomonas aeruginosa; P. aeruginosa clinical strain 6 (resistant clinical isolate),1 to 8 mg/L
same,MIC,Pseudomonas aeruginosa; P. aeruginosa clinical strain 7 (resistant clinical isolate),≤ 1 mg/L
same,MIC,Pseudomonas aeruginosa; P. aeruginosa clinical strain 8 (resistant clinical isolate),1 to 8 mg/L
same,MIC,Pseudomonas aeruginosa; P. aeruginosa clinical strain 9 (resistant clinical isolate),≤ 1 mg/L
same,MIC,Pseudomonas aeruginosa; P. aeruginosa clinical strain 10 (resistant clinical isolate),1 to 8 mg/L
same,MIC,Pseudomonas aeruginosa; P. aeruginosa clinical strain 11 (resistant clinical isolate),≤ 1 mg/L
same,MIC,Pseudomonas aeruginosa; P. aeruginosa clinical strain 12 (resistant clinical isolate),≤ 1 mg/L
same,MIC,Pseudomonas aeruginosa; P. aeruginosa clinical strain 13 (resistant clinical isolate),8 to 16 mg/L
same,MIC,Pseudomonas aeruginosa; P. aeruginosa clinical strain 14 (resistant clinical isolate),≤ 1 mg/L
same,MIC,Pseudomonas aeruginosa; P. aeruginosa clinical strain 15 (resistant clinical isolate),1 to 8 mg/L
same,MIC,Pseudomonas aeruginosa; P. aeruginosa clinical strain 16 (resistant clinical isolate),≤ 1 mg/L
same,MIC,Pseudomonas aeruginosa; P. aeruginosa clinical strain 17 (resistant clinical isolate),1 to 8 mg/L
same,MIC,Pseudomonas aeruginosa; P. aeruginosa clinical strain 18 (resistant clinical isolate),1 to 8 mg/L
same,MIC,Pseudomonas aeruginosa; P. aeruginosa clinical strain 19 (resistant clinical isolate),16 to 32 mg/L
same,MIC,Pseudomonas aeruginosa; P. aeruginosa clinical strain 20 (resistant clinical isolate),16 to 32 mg/L
same,MIC,Pseudomonas aeruginosa; P. aeruginosa clinical strain 21 (resistant clinical isolate),1 to 8 mg/L
same,MIC,Pseudomonas aeruginosa; P. aeruginosa clinical strain 22 (resistant clinical isolate),1 to 8 mg/L
same,MIC,Pseudomonas aeruginosa; P. aeruginosa strain 23 (susceptible),≤ 1 mg/L
same,MIC,Pseudomonas aeruginosa; P. aeruginosa strain 24 (susceptible),≤ 1 mg/L
same,MIC,Pseudomonas aeruginosa; P. aeruginosa strain 25 (susceptible),≤ 1 mg/L
same,MIC,Pseudomonas aeruginosa; P. aeruginosa strain 26 (susceptible),≤ 1 mg/L
same,MIC,Pseudomonas aeruginosa; P. aeruginosa strain 27 (susceptible),≤ 1 mg/L
same,mortality,"[1]; 10, 30 or 100 mg/kg/day subcutaneous, once daily, 14 days, Sprague-Dawley rat",did not result in mortality at any dose
same,macroscopic or microscopic changes to the kidneys,"[1]; rat, in vivo",nor any significant macroscopic or microscopic changes to the kidneys
